Laboratory results from patent US20260355112A1, “HIGH-STABILITY LIPOSOME, PREPARATION METHOD THEREFOR, AND USE THEREOF” (SIRIO HEALTHCARE (ANHUI) CO., LTD., priority 2022, published 2026).

Experiments:
[1] = Microscopic observation (polarizing microscope); type: physicochemical; conditions: under the microscope
Description: The test sample was taken on a glass slide, spread homogeneously, and covered with a cover glass to prepare a temporary mounting slide.
A transflective polarizing microscope (VPV-900) was used. The specific procedures were as follows: adjust the brightness, fix the temporary mounting slide on the stage, align the light aperture with a low-power objective lens, and adjust the coarse focus screw until the field of view is clear. If the clarity is insufficient, use the fine focus screw for further adjustment or switch to a high-power objective lens for observation.
Bright spots can be observed in the middle of the sample in the field of view, which were crystalline structures.

[2] = background statement; cited from earlier work

In the case of `COC1=C(OC)C(=O)C(C/C=C(\C)CC/C=C(\C)CC/C=C(\C)CC/C=C(\C)CC/C=C(\C)CC/C=C(\C)CC/C=C(\C)CC/C=C(\C)CC/C=C(\C)CCC=C(C)C)=C(C)C1=O` [Coenzyme Q10, coenzyme Q10], the Microscopic structure ([1]; listed as coenzyme Q10 raw material) is given as “irregular crystalline structures”, the Microscopic structure ([1]; listed as raw material of coenzyme Q10) is given as “irregular crystal structure” and the “Antioxidant capacity relative to vitamin E” value [2] is given as 50 times.
